# The supplement of paper PMC10307832
# What was measured:
# Test in all cases: relative viability (nuclei count vs DMSO), 5 days (fraction); higher = more cells survive
# 201T = test system: 201T
# Procedure, shortened: (§1)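 Lung cancer cell lines, seeded in 1536-well plates, were treated the following day by pin tool with a single drug or with five library-drug doses (not always all listed) in √10 steps on top of a fixed anchor-drug dose. Cells were fixed and nuclei stained in one step after 5 days, and nuclei were counted. Relative viability is the nuclei count for treated wells divided by that for vehicle wells, reported as medians of duplicate plates.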
# COR-L 105 = test system: COR-L 105
# Procedure, shortened: as §1
# ChaGo-K-1 = test system: ChaGo-K-1
# Procedure, shortened: as §1
# EKVX = test system: EKVX
# Procedure, shortened: as §1
# H3255 = test system: H3255
# Procedure, shortened: as §1
# HARA = test system: HARA
# Procedure, shortened: as §1
# HCC-827 = test system: HCC-827
# Procedure, shortened: as §1
# HOP-62 = test system: HOP-62
# Procedure, shortened: as §1
# LCLC-103H = test system: LCLC-103H
# Procedure, shortened: as §1
# LOU-NH91 = test system: LOU-NH91
# Procedure, shortened: as §1
# NCI-H1975 = test system: NCI-H1975
# Procedure, shortened: as §1
# NCI-H2126 = test system: NCI-H2126
# Procedure, shortened: as §1
# NCI-H2228 = test system: NCI-H2228
# Procedure, shortened: as §1
# NCI-H23 = test system: NCI-H23
# Procedure, shortened: as §1
# NCI-H2405 = test system: NCI-H2405
# Procedure, shortened: as §1
# NCI-H3122 = test system: NCI-H3122
# Procedure, shortened: as §1
# NCI-H596 = test system: NCI-H596
# Procedure, shortened: as §1
# NCI-H650 = test system: NCI-H650
# Procedure, shortened: as §1
# NCI-H661 = test system: NCI-H661
# Procedure, shortened: as §1
# NCI-H727 = test system: NCI-H727
# Procedure, shortened: as §1
# PC-3 [JPC-3] = test system: PC-3 [JPC-3]
# Procedure, shortened: as §1
# SK-LU-1 = test system: SK-LU-1
# Procedure, shortened: as §1
# SW 900 = test system: SW 900
# Procedure, shortened: as §1
compound,measurement,setting,value
Cc1cn(-c2cc(NC(=O)c3ccc(C)c(Nc4nccc(-c5cccnc5)n4)c3)cc(C(F)(F)F)c2)cn1 [Nilotinib] + CC(=O)Nc1cccc(-n2c(=O)n(C3CC3)c(=O)c3c(Nc4ccc(I)cc4F)n(C)c(=O)c(C)c32)c1 [Trametinib] (partner 0.02 µM),relative viability,201T; first compound 0.001 µM,0.709
same,relative viability,201T; first compound 0.003162 µM,0.749
same,relative viability,201T; first compound 0.01 µM,0.739
same,relative viability,201T; first compound 0.03162 µM,0.717
same,relative viability,201T; first compound 0.1 µM,0.728
same,relative viability,COR-L 105; first compound 0.001 µM,0.439
same,relative viability,COR-L 105; first compound 0.003162 µM,0.475
same,relative viability,COR-L 105; first compound 0.01 µM,0.533
same,relative viability,COR-L 105; first compound 0.03162 µM,0.396
same,relative viability,COR-L 105; first compound 0.1 µM,0.443
same,relative viability,ChaGo-K-1; first compound 0.001 µM,0.824
same,relative viability,ChaGo-K-1; first compound 0.003162 µM,1.15
same,relative viability,ChaGo-K-1; first compound 0.01 µM,1.03
same,relative viability,ChaGo-K-1; first compound 0.03162 µM,0.804
same,relative viability,ChaGo-K-1; first compound 0.1 µM,0.869
same,relative viability,EKVX; first compound 0.001 µM,0.336
same,relative viability,EKVX; first compound 0.003162 µM,0.351
same,relative viability,EKVX; first compound 0.01 µM,0.352
same,relative viability,EKVX; first compound 0.03162 µM,0.355
same,relative viability,EKVX; first compound 0.1 µM,0.734
same,relative viability,H3255; first compound 0.001 µM,0.617
same,relative viability,H3255; first compound 0.003162 µM,0.582
same,relative viability,H3255; first compound 0.03162 µM,0.53
same,relative viability,H3255; first compound 0.1 µM,0.947
same,relative viability,HARA; first compound 0.001 µM,0.43
same,relative viability,HARA; first compound 0.003162 µM,0.468
same,relative viability,HARA; first compound 0.01 µM,0.522
same,relative viability,HARA; first compound 0.03162 µM,0.402
same,relative viability,HARA; first compound 0.1 µM,0.289
same,relative viability,HCC-827; first compound 0.001 µM,0.593
same,relative viability,HCC-827; first compound 0.003162 µM,0.523
same,relative viability,HCC-827; first compound 0.03162 µM,0.542
same,relative viability,HCC-827; first compound 0.1 µM,0.469
same,relative viability,HOP-62; first compound 0.001 µM,0.387
same,relative viability,HOP-62; first compound 0.003162 µM,0.364
same,relative viability,HOP-62; first compound 0.1 µM,0.277
same,relative viability,LCLC-103H; first compound 0.001 µM,0.588
same,relative viability,LCLC-103H; first compound 0.003162 µM,0.773
same,relative viability,LCLC-103H; first compound 0.01 µM,0.75
same,relative viability,LCLC-103H; first compound 0.03162 µM,0.579
same,relative viability,LCLC-103H; first compound 0.1 µM,0.728
same,relative viability,LOU-NH91; first compound 0.001 µM,0.799
same,relative viability,LOU-NH91; first compound 0.003162 µM,0.818
same,relative viability,LOU-NH91; first compound 0.01 µM,0.846
same,relative viability,LOU-NH91; first compound 0.03162 µM,0.77
same,relative viability,LOU-NH91; first compound 0.1 µM,0.765
same,relative viability,NCI-H1975; first compound 0.001 µM,0.338
same,relative viability,NCI-H1975; first compound 0.003162 µM,0.338
same,relative viability,NCI-H1975; first compound 0.01 µM,0.308
same,relative viability,NCI-H1975; first compound 0.03162 µM,0.241
same,relative viability,NCI-H1975; first compound 0.1 µM,0.234
same,relative viability,NCI-H2126; first compound 0.001 µM,0.521
same,relative viability,NCI-H2126; first compound 0.003162 µM,0.647
same,relative viability,NCI-H2126; first compound 0.01 µM,0.647
same,relative viability,NCI-H2126; first compound 0.03162 µM,0.551
same,relative viability,NCI-H2126; first compound 0.1 µM,0.554
same,relative viability,NCI-H2228; first compound 0.001 µM,0.437
same,relative viability,NCI-H2228; first compound 0.003162 µM,0.552
same,relative viability,NCI-H2228; first compound 0.01 µM,0.576
same,relative viability,NCI-H2228; first compound 0.03162 µM,0.255
same,relative viability,NCI-H2228; first compound 0.1 µM,0.295
same,relative viability,NCI-H23; first compound 0.001 µM,0.319
same,relative viability,NCI-H23; first compound 0.01 µM,0.292
same,relative viability,NCI-H23; first compound 0.03162 µM,0.202
same,relative viability,NCI-H23; first compound 0.1 µM,0.197
same,relative viability,NCI-H2405; first compound 0.001 µM,0.504
same,relative viability,NCI-H2405; first compound 0.003162 µM,0.406
same,relative viability,NCI-H2405; first compound 0.01 µM,0.457
same,relative viability,NCI-H2405; first compound 0.03162 µM,0.325
same,relative viability,NCI-H2405; first compound 0.1 µM,0.327
same,relative viability,NCI-H3122; first compound 0.001 µM,0.249
same,relative viability,NCI-H3122; first compound 0.003162 µM,0.303
same,relative viability,NCI-H3122; first compound 0.03162 µM,0.157
same,relative viability,NCI-H3122; first compound 0.1 µM,0.158
same,relative viability,NCI-H596; first compound 0.001 µM,0.67
same,relative viability,NCI-H596; first compound 0.003162 µM,0.883
same,relative viability,NCI-H596; first compound 0.01 µM,0.905
same,relative viability,NCI-H596; first compound 0.03162 µM,0.668
same,relative viability,NCI-H596; first compound 0.1 µM,0.712
same,relative viability,NCI-H650; first compound 0.001 µM,0.952
same,relative viability,NCI-H650; first compound 0.003162 µM,0.915
same,relative viability,NCI-H650; first compound 0.01 µM,1.03
same,relative viability,NCI-H650; first compound 0.03162 µM,0.974
same,relative viability,NCI-H650; first compound 0.1 µM,0.9
same,relative viability,NCI-H661; first compound 0.001 µM,0.49
same,relative viability,NCI-H661; first compound 0.003162 µM,0.593
same,relative viability,NCI-H661; first compound 0.01 µM,0.606
same,relative viability,NCI-H661; first compound 0.03162 µM,0.407
same,relative viability,NCI-H661; first compound 0.1 µM,0.367
same,relative viability,NCI-H727; first compound 0.001 µM,0.405
same,relative viability,NCI-H727; first compound 0.003162 µM,0.388
same,relative viability,NCI-H727; first compound 0.01 µM,0.355
same,relative viability,NCI-H727; first compound 0.03162 µM,0.368
same,relative viability,NCI-H727; first compound 0.1 µM,0.345
same,relative viability,PC-3 [JPC-3]; first compound 0.001 µM,0.847
same,relative viability,PC-3 [JPC-3]; first compound 0.01 µM,0.7
same,relative viability,PC-3 [JPC-3]; first compound 0.03162 µM,0.523
same,relative viability,PC-3 [JPC-3]; first compound 0.1 µM,0.591
same,relative viability,SK-LU-1; first compound 0.001 µM,0.436
same,relative viability,SK-LU-1; first compound 0.003162 µM,0.475
same,relative viability,SK-LU-1; first compound 0.01 µM,0.371
same,relative viability,SK-LU-1; first compound 0.03162 µM,0.361
same,relative viability,SK-LU-1; first compound 0.1 µM,0.385
same,relative viability,SW 900; first compound 0.003162 µM,0.973
same,relative viability,SW 900; first compound 0.03162 µM,0.76
same,relative viability,SW 900; first compound 0.1 µM,0.613
